Six molecules from patent US9668479B2, “Modulating germination of Paenibacillus larvae” (THE BOARD OF REGENTS OF THE NEVADA SYSTEM OF HIGHER …, priority 2013, dated 2017) can be followed below.

Like-named read-outs stand apart in the source and are kept apart here.

The subject of one assay is P. larvae cells. Kind of assay: Growth of P. larvae cells in medium containing 5-chloroindole. The class given is cell-based, Paenibacillus larvae. The note with it: 1, 1.5 and 2 mM; all time points (6, 12, 18, 24 hours); p<0.05. As to the method: FIGS. 6A-6D are graphs plotting the inhibition activity of 5-chloroindole on P. larvae cells. P. larvae cells were grown in medium containing different concentrations of 5-chloroindole, and cellular growth was monitored over a 24 hour period. Graphs are shown for 6 hours (FIG. 6A), 12 hours (FIG. 6B), 18 hours (FIG. 6C), and 24 hours (FIG. 6D). Asterisks denote significant differences from the growth of medium control (Analysis of Variance, Log-rank test, p<0.05).
5-Chloroindole was then tested in vitro, using P. larvae cells or spores. P. larvae cells were grown in medium containing different concentrations of DMSO, complex medium (MYPGP), or 0.5 to 2 mM 5-chloroindole, and cellular growth was monitored over a 24 hour period.

In assay [1] the test system is P. larvae spores. Kind of assay: Inhibition of P. larvae spore germination, IC50 titration of indole analogs (Example 2). Format: cell-based, Paenibacillus larvae subsp. pulvifaciens strain ATCC 49843. The conditions noted are these: Paenibacillus larvae. Here is the method: After a 15 minute incubation, the spores were treated with 3 mM L-tyrosine-3 mM uric acid. The germination rate was set to 100% for P. larvae spores germinated in the absence of inhibitor. Germination rates for other conditions were divided by the uninhibited maximum germination rate obtained with 3 mM L-tyrosine-3 mM uric acid, and are reported as percent germination. Percent germination was plotted against the inhibitor concentrations.

For assay [2], the system named is honey bee larvae contacted with P. larvae spores. Kind of assay: Survival of honey bee larvae fed diet with indole analogs and P. larvae spores. The class given is in vivo. Here is the method:
First instar honey bee larvae were obtained from two colonies headed by naturally mated queens (Honey Bee Genetics, Vacaville Calif.). Queens were trapped on empty frames within a cage constructed with queen excluder. Worker bees can fit through the excluder but the queen cannot exit the cage. The frame was placed within the brood chamber to stimulate egg laying by the queen overnight. Eggs were incubated in the hive for 4 days to allow newly hatched larvae to be fed by nurse bees. First instar honey bee larvae were brought into the laboratory and stored in a 35° C. 85% relative humidity chamber before grafting.
Sterile six well plates with a well volume of 17.0 ml were filled with 2.5 ml of pre-warmed artificial worker jelly. Honey bee larvae were transferred into each well using the thin tongue made of flexible plastic from a Chinese grafting tool. The plastic grafting tool was decontaminated with 70% ethanol throughout usage. Grafting was performed in the sterile environment of a honey bee laboratory, and honey bee larvae were then transferred to a bacterial spore laboratory for control and spore exposure treatments.
Artificial worker jelly was prepared using a lyophilized royal jelly, D-glucose, D-fructose, yeast extract, and autoclaved double distilled water. Ingredients minus lyophilized royal jelly were dissolved in autoclaved double distilled water. Lyophilized royal jelly was added to this sugar-yeast extract solution and mixed thoroughly with a vortex mixer. Artificial diet was prepared an hour prior to use for larval rearing. To reduce the development of worker-queen hybrids because of nutrition, the composition and amounts of artificial worker jelly were controlled in every larval stage.
Honey bee larvae were incubated in an air tight plastic container placed inside an incubator. The desired relative humidity (95%) and temperature (35° C.) was verified with an iButton data logger (Maxim Integrated; San Jose, Calif.). The appropriate relative humidity was obtained by placing a solution of 20% glycerol by weight. The plastic containers were was decontaminated throughout usage with detergent, 70% ethanol, and treated with an ultraviolet lamp overnight.
Feeding of diets was performed daily in different amounts according to Table 2. The amount of diet consumed by larvae was assumed based on published literature. A micropipette was used to place a food drop next to the mouth of the larvae. Drowning was avoided by maintaining the appropriate humidity and water content of diet. Forty first and second instar larvae were placed into one well of a six well plate. Third instar larvae were transferred individually to 48 well plates filled with fresh food.
Larval survival was determined daily by observing signs of respiration, disease symptoms, and other abnormalities with a stereo microscope. The number of dead larvae was recorded, and surviving larvae were fed fresh food. The start of pupation was indicated by the appearance of uric acid crystals and light yellow excretions in the remaining food.
The larval survival data was analyzed using the LogRank test in SigmaPlot.

Assay [3] has as its system P. larvae spores. Kind of assay: Growth from P. larvae spores in medium containing 5-chloroindole. Format: cell-based, Paenibacillus larvae. Here is the method: FIGS. 7A-7D are graphs plotting the inhibition activity of 5-chloroindole on P. larvae spores. P. larvae spores were grown in medium containing different concentrations of 5-chloroindole. Growth was monitored over a 24 hour period; plots are shown for 6 hours (FIG. 7A), 12 hours (FIG. 7B), 18 hours (FIG. 7C), and 24 hours (FIG. 7D). Asterisks denote significant differences from the growth of medium control (Analysis of Variance, Log-rank test, p<0.05).
P. larvae spores were grown in medium containing different concentrations of DMSO, complex medium (MYPGP), or 0.5 to 2 mM 5-chloroindole, and cellular growth was monitored over a 24 hour period.

The subject of assay [4] is P. larvae spores. Kind of assay: Antagonists of P. larvae spore germination, 3 mM (Example 1). The class given is cell-based, Paenibacillus larvae subsp. pulvifaciens strain ATCC 49843. The conditions noted are these: 3 mM analog, 15 minutes, then 3 mM L-tyrosine/3 mM uric acid. Here is the method: (§1) The decrease in optical density is proportional to spore germination (Powell, J. Gen. Microbiol., 4:330-338, 1950). Changes in light diffraction during spore germination were monitored at 580 nm (OD580) on a Biomate 5 (ThermoElectron Corporation, Waltham, Mass.) or a Tecan Infinite m200 (Tecan group, Männedorf, Switzerland) spectrophotometer. Experiments were carried out in 96-well plates (200 μL/well). In preparation for germination assays, P. larvae spore suspensions were washed three times with water. Spores were then heat activated at 70° C. for 30 minutes. The heat-activated spores were allowed to reach room temperature and transferred to 0.1 M sodium phosphate buffer (pH 7.0) to an approximate OD580 of 0.70. Spores were monitored for auto-germination for 30 minutes. […] Putative germinants were added individually or in combinations to a final concentration of 3 mM. Experiments were performed in triplicate with at least two different spore preparations. After germinant addition, OD580 of the spore suspension was measured every minute for an hour. Relative OD values were derived by dividing each OD580 reading by the initial OD580. Spore germination rates (v) were calculated from the initial linear decrease in relative OD (Akoachere et al., supra). Germination rates were set to 100% for P. larvae spores that had the fastest germination rate in an assay. Germination rates for other conditions were divided by the maximum germination rate for that assay and are reported as percent germination. Standard deviations were calculated from at least six independent measurements and are typically below 10%. Spore germination was confirmed in selected samples by microscope observation of Schaeffer-Fulton stained aliquots (Schaeffer and Fulton, supra).
To test for possible antagonists of P. larvae spore germination, spores were individually supplemented with 3 mM of a purine analog or 3 mM of an amino acid analog. […] If no germination was detected, L-tyrosine and uric acid were added to 3 mM final concentrations, and germination was monitored as described above. […]

In assay [5] the test system is P. larvae spores. Kind of assay: Determination of germinants / agonists of P. larvae spore germination (OD580 decrease). Format: cell-based, Paenibacillus larvae subsp. pulvifaciens strain ATCC 49843. The conditions noted are these: 3 mM amino acid or analog plus 3 mM uric acid. As to the method: as §1
To test for possible agonists of P. larvae spore germination, spores were individually supplemented with 3 mM of a purine analog and 3 mM L-tyrosine. Separately, P. larvae spores were incubated with 3 mM of an amino acid analog and 3 mM uric acid. Spore germination was monitored as described above. […]

Assay [6] has as its system P. larvae subsp. larvae spores. Format: cell-based, Paenibacillus larvae subsp. larvae. From the text:
Chemicals were purchased from Sigma Aldrich Corporation (St. Louis, Mo.). Dehydrated culture media was purchased from BD Difco (Franklin Lakes, N.J.). Paenibacillus larvae subsp. pulvifaciens strain ATCC 49843 was purchased from the […] (ATCC). Environmental American Foulbrood scales (the remains of infected larvae collected from infected hives) were kindly donated by Dr. Jay D. Evans at the USDA Bee Research Facility in Beltsville, Md.
To test the generality of P. larvae spore response, spores were prepared from P. larvae subsp. pulvifaciens strain ATCC 49843, and also from an environmental AFB sample.

Assay [7] has as its system P. larvae spores. Kind of assay: Inhibition of P. larvae spore germination by indole and phenol, IC50 titration (Example 1). The conditions noted are these: Paenibacillus larvae. The class given is cell-based, Paenibacillus larvae subsp. pulvifaciens strain ATCC 49843. Here is the method:
as §1, with “Standard deviations were calculated from at least six independent measurements and are typically below 10%.” left out
After 15 minutes of incubation, spores were treated with 3 mM L-tyrosine/3 mM uric acid. The germination rate was set to 100% for P. larvae spores germinated in the absence of inhibitor. Germination rates for other conditions were divided by the uninhibited maximum germination rate obtained with 3 mM L-tyrosine/3 mM uric acid, and are reported as percent germination. Percent germination was plotted against inhibitor concentrations. The resulting sigmoidal curves were fitted using the four parameter logistic function in SigmaPlot v.9 to calculate IC50 values.

Assay [8] deals with P. larvae spores. Kind of assay: Activation of P. larvae spore germination by L-tyrosine and uric acid (titration). Format: cell-based, Paenibacillus larvae subsp. pulvifaciens strain ATCC 49843. The conditions noted are these: Paenibacillus larvae. Here is the method: The decrease in optical density is proportional to spore germination (Powell, J. Gen. Microbiol., 4:330-338, 1950). Changes in light diffraction during spore germination were monitored at 580 nm (OD580) on a Biomate 5 (ThermoElectron Corporation, Waltham, Mass.) or a Tecan Infinite m200 (Tecan group, Männedorf, Switzerland) spectrophotometer. Experiments were carried out in 96-well plates (200 μL/well). In preparation for germination assays, P. larvae spore suspensions were washed three times with water. Spores were then heat activated at 70° C. for 30 minutes. The heat-activated spores were allowed to reach room temperature and transferred to 0.1 M sodium phosphate buffer (pH 7.0) to an approximate OD580 of 0.70. Spores were monitored for auto-germination for 30 minutes. […] After germinant addition, OD580 of the spore suspension was measured every minute for an hour. Relative OD values were derived by dividing each OD580 reading by the initial OD580. Spore germination rates (v) were calculated from the initial linear decrease in relative OD (Akoachere et al., supra). […] Standard deviations were calculated from at least six independent measurements and are typically below 10%. […]
P. larvae spore germination was tested with different combinations of L-tyrosine and uric acid. […] Germination rates were determined as above. […]

[9] abbreviates: environmental P. larvae subsp. larvae compared with strain ATCC 49843.

A word on the IC50: it is the concentration that inhibits the measured activity by half. For the molecule `Clc1ccc2[nH]ccc2c1` [5-chloroindole], the “inhibition of P. larvae cell growth vs medium control” value with P. larvae cells is listed as “significantly inhibited”. In addition, the IC50 with P. larvae spores [1] (Table 2, saturating uric acid/L-tyrosine concentrations, read-out: IC50) is 30 ± 10 µM. For the same molecule, the “concentration dependence of increase in larval survival” value in assay [2] (0.125 mM to 1 mM in larval diet (wj) plus P. larvae spores, p<0.001) is recorded as “directly correlated to its concentration”. Moreover, the “ranking of effect on larval survival among analogs” value in assay [2] (0.5 mM in larval diet (wj) plus P. larvae spores) is given as “greatest effect”. Also, the “survival of honey bee larvae vs P. larvae spores alone” value in assay [2] (0.5 mM in larval diet (wj) plus P. larvae spores, 7-day development, p<0.002) is given as “increased survival”. The “effect on growth from P. larvae spores vs medium control, 6 hours” value with P. larvae spores [3] (0.5 to 2 mM, 6 hours) is recorded as “no significant effect”. In the assay on P. larvae spores [3] (all concentrations (0.5 to 2 mM), 18 and 24 hours, p<0.05), the “effect on growth from P. larvae spores vs medium control, 18 and 24 hours” value was “significantly inhibited”.

Regarding `N[C@H](Cc1ccc(O)cc1)C(=O)O` [D-tyrosine, reference compound], in the assay on P. larvae spores [4], the “inhibition of uric acid/L-tyrosine-induced germination” value is “did not inhibit”. The “germination response as co-germinant with uric acid” value in the assay with P. larvae spores [5] is “none of the compounds tested was able to activate”.

Consider `c1ccc2[nH]ccc2c1` [Indole], for which the “inhibition of uric acid/L-tyrosine-induced germination” value in the assay with P. larvae spores [4] was “able to inhibit”. Also, the IC50 was 370 ± 20 µM with P. larvae spores [1], 400 µM in the assay with P. larvae spores [1] (read-out: IC50 inhibition of P. larvae spore germination (previously shown)), 330 µM with P. larvae spores [7] and 370 µM in the assay on P. larvae spores [7] (read-out: IC50 inhibition of P. larvae spore germination). Also, in assay [6] (setting [9]), the “inhibition of germination, both P. larvae sub-species” value was “similarly inhibited”.

Usually EC50 stands for the concentration at which the effect is half-maximal. As for `N[C@@H](Cc1ccc(O)cc1)C(=O)O` [L-tyrosine], the “germination response to L-tyrosine and uric acid, both P. larvae sub-species” value in assay [6] (setting [9]) is listed as “responded identically”. Further, the EC50 in the assay with P. larvae spores [8] (read-out: EC50 for L-tyrosine activation of P. larvae spore germination) was 1200 µM. In addition, the “germination response as co-germinant with uric acid” value with P. larvae spores [5] was “strong germination response”.

In the case of `Oc1ccccc1` [Phenol], the “inhibition of uric acid/L-tyrosine-induced germination” value with P. larvae spores [4] was “able to inhibit”. Besides, the “inhibition of germination, both P. larvae sub-species” value in assay [6] is given as “similarly inhibited”. Moreover, the “germination response as co-germinant with uric acid” value with P. larvae spores [5] is recorded as “none of the compounds tested was able to activate”.

In the case of `O=c1[nH]c(=O)c2[nH]c(=O)[nH]c2[nH]1` [uric acid, reference compound], the “germination response to L-tyrosine and uric acid, both P. larvae sub-species” value in assay [6] (setting [9]) is “responded identically”. Besides, the EC50 in the assay on P. larvae spores [8] (titration of uric acid at saturating L-tyrosine concentration (3 mM), read-out: EC50 for uric acid activation of P. larvae spore germination) amounted to 200 µM.
